Test system: ABC superfamily genes in MCF-7/PAX
Experiment: Expression of genes encoding ABC transporters, qPCR
Format: cell-based, human
Procedure: Based on the fact that compounds K3, K4, K7 sensitized drug-resistant cell lines (HOC/ADR, MCF-7/PAX) and modulated ATPase activity of one from the ABC proteins (P-gp), we verified the potential of these compounds to affect ABC superfamily gene expression. The ovarian and breast cancer cell lines (parental cells and resistant sub-line) were analysed for the expression profile of genes encoding the ABC proteins in the previous works[18]–[20]. […] After 48 h, the effect of compounds alone or in the combination with cytostatics was observed (Supplementary Tables 1, Table 2).
To determine the impact of selected compounds on the expression of genes encoding ABC transporter, HOC/ADR and MCF-7/PAX cells were seeded for 24 h into 5 cm Petri dishes with DMEM medium at the cell density 1 × 10^5 cells/mL. Afterwards, the cells were washed 1× with PBS and new fresh DMEM supplemented with K3, K4, and K7 (in concentration corresponding to their IC10 value) alone or combined with cytostatics (Adriamycin or paclitaxel in concentration corresponding to their IC25 value) was added. In the experiment, positive and negative control was also included (positive—untreated cells, negative—cells treated only with cytostatics). After 48 h exposure, the cells were washed once with PBS and released from the surface by using the above-mentioned trypsin–EDTA procedure. The enzyme reaction was stopped by medium addition and the cells were centrifuged (3200×g; 10 min, 4 °C). The supernatants were removed and before the next centrifugation, the pellets were resuspended in 1.5 mL of cooled PBS (5400×g; 10 min, 4 °C). After the second washing step, the cells were centrifuged another time (10,000×g; 3 min, 4 °C). Subsequently, 1 mL of Trizol (Invitrogen) was added to the pellets and the compounds were stored − 80 °C.
The RNA concentration of selenoester treated samples was determined using QuantiT RiboGreen RNA Assay Kit and Infinite M200 plate reader (Tecan, Männedor, Switzerland). The cDNA was synthesized from 0.5 µg of total RNA by RevertAid First Strand Synthesis cDNA Kit (MBI Fermentas, Vilnius, Lithuania). To determine the quality of cDNA, the ubiquitin C gene fragment was amplified. The experiment was performed in 384-well block by using ViiA7 Real-Time PCR System (Life Technologies, Camarillo, California, United States). A master mix contained 0.25 µL of 20× TaqMan Gene Expression Assay, 1 µL of 5× HotFIREPol Probe qPCR Mix Plus, 1.75 µL of RNase free water and 2 µL of 8× diluted cDNA. The final reaction volume was 5 µL. The PCR parameters were as follows: initial hold (50 °C for 2 min), denaturation (95 °C for 10 min), followed by 45 cycles (denaturation at 95 °C for 15 s, annealing at 60 °C for 1 min). After each cycle, the fluorescent signal was determined. For each compound, duplicates were analysed and those with a standard deviation higher than 0.5 Ct were re-analysed. A quantitate real-time PCR was followed by MIQE guidelines. To compare the relative transcript levels of genes, the software REST 2009 (Qiagen, Hilden, Germany) was used.
Table 2. Effect of selenoesters either on the expression of the ABC gene superfamily in paclitaxel-resistant breast cancer cell line (MCF-7/PAX).
Gene expression of ABC transporters were estimated using comercial predesigned Taqman Gene Expression Assays (Life technologies). TaqMan Gene Expression Assays are based on 5´ nuclease chemistry, and each assay contains the primer and probe set for target of interest. Taqman assays IDs and GenBank Accession numbers of reference sequencies identifying their location and amplicon lengths are included in the Supplementary Table I. * Relative transcript levels (P-value ) in treated and non-treated cancer cell lines were compared using REST 2009 software.

Question: With CC(=O)C[Se]C(=O)c1ccc(Br)cc1 [K3] as the molecule, how does the “number of ABC genes with altered expression” value read?
Answer: 30

Question: What about the “ABCA2 Expression Difference” value (IC10 alone, 48 h) of the same molecule?
Answer: 0.188

Question: What about the “ABCA2 Treated vs. Untr.” value (IC10 alone, 48 h) of the same molecule?
Answer: DOWN

Question: What about the “ABCA3 Expression Difference” value (IC10 alone, 48 h) of the same molecule?
Answer: 0.481

Question: And the “ABCA3 Treated vs. Untr.” value (IC10 alone, 48 h)?
Answer: DOWN

Question: What about the “ABCA4 Expression Difference” value (IC10 alone, 48 h) of the same molecule?
Answer: 27.38

Question: What about the “ABCA5 Expression Difference” value (IC10 alone, 48 h) of the same molecule?
Answer: 0.559

Question: And the “ABCA5 Treated vs. Untr.” value (IC10 alone, 48 h)?
Answer: DOWN

Question: And the “ABCA7 Expression Difference” value (IC10 alone, 48 h)?
Answer: 0.5100

Question: And the “ABCA7 Treated vs. Untr.” value (IC10 alone, 48 h)?
Answer: DOWN

Question: And the “ABCA12 Expression Difference” value (IC10 alone, 48 h)?
Answer: 1.149

Question: And the “ABCB1 Expression Difference” value (IC10 alone, 48 h)?
Answer: 0.401

Question: What about the “ABCB1 Treated vs. Untr.” value (IC10 alone, 48 h) of the same molecule?
Answer: DOWN

Question: What about the “ABCB2 Expression Difference” value (IC10 alone, 48 h) of the same molecule?
Answer: 0.354

Question: And the “ABCB2 Treated vs. Untr.” value (IC10 alone, 48 h)?
Answer: DOWN

Question: And the “ABCB3 Expression Difference” value (IC10 alone, 48 h)?
Answer: 0.235

Question: What about the “ABCB3 Treated vs. Untr.” value (IC10 alone, 48 h) of the same molecule?
Answer: DOWN

Question: And the “ABCB6 Expression Difference” value (IC10 alone, 48 h)?
Answer: 0.340

Question: And the “ABCB6 Treated vs. Untr.” value (IC10 alone, 48 h)?
Answer: DOWN

Question: And the “ABCB7 Expression Difference” value (IC10 alone, 48 h)?
Answer: 0.143

Question: And the “ABCB7 Treated vs. Untr.” value (IC10 alone, 48 h)?
Answer: DOWN

Question: What about the “ABCB8 Expression Difference” value (IC10 alone, 48 h) of the same molecule?
Answer: 0.488

Question: And the “ABCB8 Treated vs. Untr.” value (IC10 alone, 48 h)?
Answer: DOWN

Question: What about the “ABCB9 Expression Difference” value (IC10 alone, 48 h) of the same molecule?
Answer: 0.422

Question: What about the “ABCB9 Treated vs. Untr.” value (IC10 alone, 48 h) of the same molecule?
Answer: DOWN

Question: What about the “ABCB10 Expression Difference” value (IC10 alone, 48 h) of the same molecule?
Answer: 0.922

Question: What about the “ABCB10 Treated vs. Untr.” value (IC10 alone, 48 h) of the same molecule?
Answer: DOWN

Question: And the “ABCC1 Expression Difference” value (IC10 alone, 48 h)?
Answer: 0.272

Question: And the “ABCC1 Treated vs. Untr.” value (IC10 alone, 48 h)?
Answer: DOWN

Question: What about the “ABCC2 Expression Difference” value (IC10 alone, 48 h) of the same molecule?
Answer: 0.076

Question: What about the “ABCC2 Treated vs. Untr.” value (IC10 alone, 48 h) of the same molecule?
Answer: DOWN

Question: And the “ABCC3 Expression Difference” value (IC10 alone, 48 h)?
Answer: 15.79

Question: And the “ABCC4 Expression Difference” value (IC10 alone, 48 h)?
Answer: 0.221

Question: And the “ABCC4 Treated vs. Untr.” value (IC10 alone, 48 h)?
Answer: DOWN

Question: What about the “ABCC5 Expression Difference” value (IC10 alone, 48 h) of the same molecule?
Answer: 1.010

Question: And the “ABCC6 Expression Difference” value (IC10 alone, 48 h)?
Answer: 0.958

Question: What about the “ABCC6 Treated vs. Untr.” value (IC10 alone, 48 h) of the same molecule?
Answer: DOWN

Question: And the “ABCC8 Expression Difference” value (IC10 alone, 48 h)?
Answer: 0.648

Question: And the “ABCC8 Treated vs. Untr.” value (IC10 alone, 48 h)?
Answer: DOWN

Question: And the “ABCC10 Expression Difference” value (IC10 alone, 48 h)?
Answer: 0.171

Question: And the “ABCC10 Treated vs. Untr.” value (IC10 alone, 48 h)?
Answer: DOWN

Question: What about the “ABCD1 Expression Difference” value (IC10 alone, 48 h) of the same molecule?
Answer: 0.123

Question: What about the “ABCD1 Treated vs. Untr.” value (IC10 alone, 48 h) of the same molecule?
Answer: DOWN

Question: What about the “ABCD3 Expression Difference” value (IC10 alone, 48 h) of the same molecule?
Answer: 0.267

Question: What about the “ABCD3 Treated vs. Untr.” value (IC10 alone, 48 h) of the same molecule?
Answer: DOWN

Question: What about the “ABCD4 Expression Difference” value (IC10 alone, 48 h) of the same molecule?
Answer: 0.971

Question: What about the “ABCE1 Expression Difference” value (IC10 alone, 48 h) of the same molecule?
Answer: 0.552

Question: And the “ABCE1 Treated vs. Untr.” value (IC10 alone, 48 h)?
Answer: DOWN

Question: And the “ABCF1 Expression Difference” value (IC10 alone, 48 h)?
Answer: 2.388

Question: And the “ABCF2 Expression Difference” value (IC10 alone, 48 h)?
Answer: 0.625

Question: And the “ABCF2 Treated vs. Untr.” value (IC10 alone, 48 h)?
Answer: DOWN

Question: What about the “ABCF3 Expression Difference” value (IC10 alone, 48 h) of the same molecule?
Answer: 0.487

Question: And the “ABCF3 Treated vs. Untr.” value (IC10 alone, 48 h)?
Answer: DOWN

Question: What about the “ABCG1 Expression Difference” value (IC10 alone, 48 h) of the same molecule?
Answer: 0.132

Question: And the “ABCG1 Treated vs. Untr.” value (IC10 alone, 48 h)?
Answer: DOWN

Question: And the “ABCG2 Expression Difference” value (IC10 alone, 48 h)?
Answer: 0.250

Question: And the “ABCG2 Treated vs. Untr.” value (IC10 alone, 48 h)?
Answer: DOWN

Question: And the “ABCG4 Expression Difference” value (IC10 alone, 48 h)?
Answer: 0.204

Question: What about the “ABCG4 Treated vs. Untr.” value (IC10 alone, 48 h) of the same molecule?
Answer: DOWN

Question: And the “decrease of expression of ABCB1 (P-gp) encoding gene” value (IC10 alone, 48 h)?
Answer: 60%

Question: What about the “downregulation of expression of ABCC1 (MRP1)” value (IC10 alone, 48 h) of the same molecule?
Answer: 73%

Question: And the “downregulation of expression of ABCG2” value (IC10 alone, 48 h)?
Answer: 75%

From publication PMC9023544, “Ketone-selenoesters as potential anticancer and multidrug resistance modulation agents in 2D and 3D ovarian and breast cancer in vitro models” (Scientific Reports, 2022)
